According to US10328075B2, “Method of treatment and compounds for use therein” (Baker Heart and Diabetes Institute, priority 2015, dated 2019):
No end group written: not given here.

Columns and labels:
[1] = system: myocardial I-R injury in C57BL/6 mice; test: Myocardial I-R in mice: cardiac necrosis after 24 h reperfusion (infarct size, plasma cTnI); type: in vivo, mouse; settings: for Effect on plasma cTnI levels / Reduction of infarct size: small molecules 50 mg/kg i.p., Ac2-26 1 mg/kg i.v.; for Cardioprotection: Infarct size: Table 9; for Cardioprotection: isolated cardio-myocytes in vitro & intact heart subjected to MI in vivo
Protocol: (§1) Male C57BL/6 mice were breed and housed in the AMREP Animal Centre and maintained under a 12 h light/dark cycle. After anaesthesia (i.p., ketamine 80 mg/kg, xylazine 20 mg/kg and atropine 1.2 mg/kg), mice were randomly assigned to 24 h, 48 h and 7 days reperfusion groups and underwent reversible left arterial descending (LAD) ligation as described (Gao XM, 2011; JMCC, 50; Gao XM, 2000, JMCC). Following sedation, mice were intubated and ventilated (Harvard apparatus, MA, USA) with room air mixed with oxygen (tidal volume 0.25 mL, 150 breath/min), and placed on a heating pad. A left thoractomy will be made via the ˜third intercostal space, where the beating heart was located.
(§2) The LAD was reversibly ligated using 7-0 silk suture with a slipknot enclosing two releasing rings. Regional ischaemia was confirmed by pale colour of the ligated area. Air was then evacuated from the chest, the cavity was closed and normal respiration was restored. After 40-60 min of ischaemia, blood flow through the left coronary artery was re-established by releasing the slipknot. Sham-operated mice underwent identical surgical procedures except the coronary arteries were not ligated. Three cohorts of mice were scheduled. Cohort 1 was subjected to 40 min ischaemic-24 h reperfusion for the assessment of cardiac necrosis. Cohort 2 was subjected to 60 min occlusion with 48 h reperfusion for the quantification of cardiac and systemic inflammation. The last cohort was subjected to 7 d reperfusion and early cardiac fibrosis was assessed.
(§3) Treatment with study drugs: Animals were randomly assigned to different groups and all treatments were administrated 5 min prior to reperfusion of the LAD. The peptide Ac2-26 (1 mg kg^−1) (Chemieliva, Chongqing, China) and its vehicle (10% dimethyl sulfoxide (DMSO) in saline) were intravenously (i.v.) injected via the tail vein. […] Mice then received drug or vehicle injections daily until the experimental endpoint. The two different vehicles groups reflect different study drug solubility and administration routes.
Assessment of cardiac necrosis: The optimal time point for assessment of cardiac necrosis is 24 h reperfusion after an ischaemic insult. Plasma levels of cTnI were determined using a commercially available, high-sensitivity rat cTnI ELISA kit (Life Diagnostic Inc., Pennsylvania, USA) as per the manufacturer's instructions. To evaluate the size of the infarction in relation to the area-at-risk (AAR), infarct size (IS) and LV size, 2,3,5-triphenyltetrazolium chloride (TTC) staining was performed. The LAD was tightly re-occluded in anaesthetised mice after 24 h of reperfusion and Evans blue dye (0.1 mL, 5%) was injected as a bolus into the LV. The heart was then excised and rinsed in cold saline to remove excess dye. The LV was isolated, frozen at −20° C. and then cut transversely into six to seven slices at 1.0 mm thickness. LV slices were incubated for 45 min with 1.5% TTC solution at 37° C. The presence of Evans blue indicated perfusion, whereas its absence indicated lack of perfusion to that region, whereas the brick red areas indicate viable myocardium, white or yellowish regions demarcate necrotic tissue. The slices were mounted between glass slides, and images were acquired digitally using […] microscope (Leica Wild M3B, Heerbrugg, Switzerland) coupled with digital camera (Nikon Cool-PIX4500, Tokyo, Japan). The images were analyzed using Image J analysis program (Version 1.45S, National Institute of Health, USA). The non-ischaemic zone (blue area), area-at-risk zone (AAR, red and white or yellow areas), infarct zone (white or yellow areas) and total LV were outlined and quantified blindly. Infarct size was calculated as percentage of infarct zone/risk zone.
Animal Surgery: Adult C57BL/6 mice were randomly assigned to myocardial ischemia-reperfusion (I-R) injury or sham in vivo. […]

[2] = system: myocardial I-R injury in C57BL/6 mice; test: Myocardial I-R in mice: systemic inflammation after 48 h reperfusion; type: in vivo, mouse
Protocol: as §1, §2, §3
Assessment of systemic inflammation: Blood samples collected from mice subjected to 60 min ischaemia and 48 h reperfusion were diluted 1:20 into 2% acetic acid to lyse the red blood cells for total WBC counting, using a haemocytometer. Blood smears were stained using a hemacolor staining kit (Merck millipore, Melbourne, Australia) and then examined under 60× magnification using an Olympus Biological CHS microscope (Olympus Inc., Tokyo, Japan) for manual counting of neutrophils, lymphocytes and monocytes per 100 WBCs.
Animal Surgery: Adult C57BL/6 mice were randomly assigned to myocardial ischemia-reperfusion (I-R) injury or sham in vivo. Anesthetized mice (ketamine 80 mg/kg, xylazine 20 mg/kg and atropine 1.2 mg/kg, KXA, i.p.) underwent reversible left arterial descending (LAD) ligation as described (Gao et al. 2000 & Gao et al. 2011). Following sedation, mice were intubated and ventilated (Harvard apparatus, MA, USA) with room air mixed with oxygen (tidal volume 0.25 mL, 150 breaths/min), and placed on a heating pad. A left thoractomy was be made around the third intercostal space, where the beating heart was located. The LAD was reversibly ligated using 7-0 silk suture with a slipknot enclosing two releasing rings. Regional ischemia was confirmed by pale color of the ligated area. Air was then evacuated from the chest, the cavity closed and normal respiration restored. Blood flow through the left coronary artery was subsequently re-established at the end of the ischemic period (i.e. reperfusion) by releasing the slipknot. Three distinct cohorts of mice were studied. Cohorts 1 and 2 were subjected to 40 mins ischemia with either 24 h or 7 days reperfusion, optimal timepoints for the assessment of cardiac necrosis and early cardiac remodeling in vivo, respectively. Cohort 3 was subjected to 60 mins LAD occlusion with 48 h reperfusion, for the quantification of cardiac and systemic inflammation. […]

[3] = mice, 40 min ischaemia, 24 h reperfusion
[4] = 48 h reperfusion, listed as Cmpd17b

Compound | Effect on cardiac necrosis (cardioprotective action) 24 h post I-R ([1]; mice, 50 mg/kg i.p.) | Effect on infarct size (in words) ([1]; mice, 40 min ischaemia, 24 h reperfusion, 50 mg/kg i.p.) | Effect on plasma cTnI levels ([1]; mice, 24 h reperfusion) | Effect on systemic inflammation / early inflammatory response 48 h post I-R ([2]; 50 mg/kg i.p.) | Effect on circulating lymphocytes ([2]; 48 h reperfusion) | Effect on circulating monocytes ([2]; 48 h reperfusion) | Cardioprotection: Infarct size ([1]; mice) | Cardioprotection [1] | Reduction of infarct size [1, 3] [%] | Reduction of infarct size ([1]; mice, 40 min ischaemia, 24 h reperfusion, listed as Cmpd17b) [%] | Effect on circulating IL-1β ([2]; 48 h reperfusion) | Effect on circulating neutrophils ([2]; 48 h reperfusion) | Effect on total circulating WBC ([2]; 48 h reperfusion) | Effect on circulating lymphocytes [2, 4] | Effect on total circulating WBC [2, 4]
CC(C)C1C(NC(=O)Nc2ccc(Cl)cc2)C(=O)N(c2ccccc2)N1C (stereo not drawn) [BIDI-002] | lacked cardioprotective actions | not | not seen | not | significantly increased | significantly increased | – | – | – | – | – | – | – | – | –
COc1cccc(Cc2cc(C)nn(C(C)C(=O)Nc3ccc(Br)cc3)c2=O)c1 (stereo not drawn) [BIDI-001, N-(4-bromophenyl)-2-[5-(3-methoxybenzyl)-3-methyl-6-oxo-6H-pyridazin-1-yl]-propionamide] | reduces cardiac necrosis | – | significantly reduced | – | tended to reduce | without affecting | ↓↓ | conferred cardioprotection | ~34 | ~35 | significantly blunted | absent | tended to reduce | significantly blunted | absent
Ac2-26: Annexin-A1 N-terminal peptide, peptide ANX-A1 mimetic (Ac-AMVSEFLKQAWFIENEEQEYVQTVK; UniProt P04083 2-26, looked up, fragment) | – | – | non-significant trend | – | – | – | – | – | ~25 | – | – | – | did not significantly alter | – | –
Cc1cc(Cc2cccnc2)c(=O)n(CC(=O)Nc2ccc(Cl)cc2)n1 [MIPS-0010396] | – | – | – | – | – | – | ↓↓ | confers cardioprotection | – | – | – | – | – | – | –
